Results reported in US8026257B2 (Bristol-Myers Squibb Company, priority 2007, dated 2011).

How the values were obtained:
[1] = target: T1, NK-1 (Homo sapiens, UniProt P25103); assay: NK1 radioligand binding assay ([125I]Substance P, U373 membranes); conditions: U373 cell membranes, 200 pM [125I]Substance P, 1 hour at room temperature
T1 construct: 30 ul/well of a 2×U373 membrane preparation
Protocol: (§1) NK-1 Binding assay. Crude membrane suspensions were prepared for the NK1 and SERT radioligand binding assays from U373 cells or recombinant HEK-293 cells expressing hSERT, respectively. Cells were harvested from T-175 flasks as follows. The medium is removed from the flasks and the cells rinsed with HBSS without Ca and without Mg. The cells are then incubated for 5-10 minutes in 10 mM Tris-Cl, pH 7.5, 5 mM EDTA before the cells are lifted with a combination of pipetting and scraping, as needed. To prepare membranes, the cell suspension is collected into centrifuge bottles and homogenized for 30 seconds with a Polytron homogenizer. The suspension is centrifuged for 30 min@32,000×g, 4° C., then the supernatant is decanted and the pellet resuspended and homogenized in 50 mM Tris-Cl, pH 7.5, 1 mM EDTA for 10 seconds. The suspension is then centrifuged again for 30 min@32,000×g, 4° C. The supernatant is decanted and the pellet resuspended in 50 mM Tris-Cl, pH 7.5, 1 mM EDTA and briefly homogenized. A Bradford assay (Bio-rad) is performed and the membrane preparation diluted to 2 mg/ml with 50 mM Tris-Cl, pH 7.5, 1 mM EDTA. Aliquots are prepared, and then frozen and stored at −80° C.
NK1 radioligand binding assay. Compounds are dissolved in 100% DMSO at a concentration 100× the desired highest assay concentration, serially diluted 1:3 in 100% DMSO, and 0.6 ul/well of each solution is dispensed to a Nunc polypropylene, round bottom, 384 well plate. 100% inhibition is defined with 0.6 ul/well of 1 mM L-733,060 (Sigma L-137) dissolved in DMSO. 30 ul/well of a 2×U373 membrane preparation (267 ug/ml in 100 mM Tris-Cl, pH 7.5, 6 mM MgCl2, 0.2% (v/v) Sigma mammalian protease inhibitor cocktail (Sigma P-8340), and 4 ug/ml chymostatin, Sigma C-7268) and 30 ul/well of a 2× radioligand solution (400 pM [^125I]Substance P (Perkin ElmerNEX-190) in 1% (w/v) BSA (Sigma A-2153), 0.1 mg/ml bacitracin, Sigma B-0125) are added to the well and the reaction incubated for 1 hour at room temperature. The contents of the assay plate are then transferred to a Millipore MultiscreenHTS GF/B filter plate which has been pretreated with 0.5% PEI for at least one hour. The plate is vacuum filtered and washed with 7 washes of 100 ul/well of 20 mM Tris-Cl, pH 7.5, 0.5% (w/v) BSA chilled to 4° C. The filtration and washing is completed in less than 90 s. The plates are air-dried overnight, 12 ul/well of MicroScint scintillation fluid added, and the plates counted in a Trilux.
(§2) Data analysis. The raw data are normalized to percent inhibition using control wells defining 0% (DMSO only) and 100% (selective inhibitor) inhibition which are run on each plate. Each plate is run in triplicate, and the concentration response curve thus generated is fit using the four-parameter dose response equation, Y=Bottom+(Top-Bottom)/(1+10^((LogIC50−X)*HillSlope)) in order to determine the IC50 value for each compound. The radioligand concentration chosen for each assay corresponds to the Kd concentration determined through saturation binding analysis for each assay.

[2] = target: hSERT (Homo sapiens, UniProt P31645); assay: SERT radioligand binding assay ([125I]RTI-55, HEK-hSERT membranes); conditions: HEK-293 hSERT membranes, 260 pM [125I]RTI-55, 1 hour at room temperature; read-out: SERT IC50
Protocol: as §1
SERT radioligand binding assay. Compounds are dissolved in 100% DMSO at a concentration 100× the desired highest assay concentration, serially diluted 1:3 in 100% DMSO, and 0.4 ul/well of each solution is dispensed to a Nunc polypropylene, round bottom, 384 well plate. 100% inhibition is defined with 0.4 ul/well of 1 mM fluoxetine (Sigma F-132) dissolved in DMSO. 20 ul/well of a 2× HEK-hSERT membrane preparation (15 ug/ml in 50 mM Tris-Cl, pH 7.5, 120 mM NaCl, 5mM KCl) and 20 ul/well of a 2× radioligand solution (520 pM [^125I]RTI-55 (Perkin-Elmer NEX-272) in 50 mM Tris-Cl, pH 7.5, 120 mM NaCl, 5mM KCl) are added to each well and the reaction incubated for 1 hour at room temperature. The contents of the assay plate are then transferred to a Millipore MultiscreenHTs GF/B filter plate which has been pretreated with 0.5% PEI for at least one hour. The plate is vacuum filtered and washed with 7 washes of 100 ul/well of 50 mM Tris-Cl, pH 7.5, 120 mM NaCl, 5 mM KCl chilled to 4° C. The filtration and washing is completed in less than 90 s. The plates are air-dried overnight, 12 ul/well of MicroScint scintillation fluid added, and the plates counted in a Trilux.
as §2

Chain of hSERT (P31645 whole entry): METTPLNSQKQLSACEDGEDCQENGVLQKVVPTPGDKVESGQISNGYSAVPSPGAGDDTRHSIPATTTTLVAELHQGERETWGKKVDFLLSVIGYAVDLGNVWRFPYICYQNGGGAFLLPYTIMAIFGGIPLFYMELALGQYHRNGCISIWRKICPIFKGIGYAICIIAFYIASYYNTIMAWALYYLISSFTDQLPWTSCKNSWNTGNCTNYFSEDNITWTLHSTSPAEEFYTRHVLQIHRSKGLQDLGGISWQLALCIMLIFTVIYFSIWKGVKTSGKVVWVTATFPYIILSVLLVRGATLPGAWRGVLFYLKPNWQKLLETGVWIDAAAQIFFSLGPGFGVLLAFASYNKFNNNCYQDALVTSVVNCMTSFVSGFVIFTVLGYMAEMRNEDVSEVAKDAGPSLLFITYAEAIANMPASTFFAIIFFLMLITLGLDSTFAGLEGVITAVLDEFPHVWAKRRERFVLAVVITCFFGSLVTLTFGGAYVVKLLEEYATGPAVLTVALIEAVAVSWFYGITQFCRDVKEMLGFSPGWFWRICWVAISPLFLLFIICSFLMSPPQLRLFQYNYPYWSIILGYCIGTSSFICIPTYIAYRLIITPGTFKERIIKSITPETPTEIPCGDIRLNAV
T1 sequence (P25103 whole entry): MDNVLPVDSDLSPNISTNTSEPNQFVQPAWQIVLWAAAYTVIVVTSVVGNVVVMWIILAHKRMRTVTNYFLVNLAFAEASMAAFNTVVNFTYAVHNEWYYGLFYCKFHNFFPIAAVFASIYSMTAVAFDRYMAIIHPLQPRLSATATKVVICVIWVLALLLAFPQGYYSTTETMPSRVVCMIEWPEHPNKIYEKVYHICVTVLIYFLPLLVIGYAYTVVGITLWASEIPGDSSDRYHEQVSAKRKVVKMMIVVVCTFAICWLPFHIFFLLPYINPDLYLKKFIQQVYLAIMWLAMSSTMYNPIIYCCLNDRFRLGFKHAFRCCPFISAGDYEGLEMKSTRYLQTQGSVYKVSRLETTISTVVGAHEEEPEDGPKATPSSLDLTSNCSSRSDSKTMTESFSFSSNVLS

| SMILES | IC50 [1] [nM] | IC50 [2] [nM] |
| --- | --- | --- |
| Cc1cc(C(C)OCC2(c3ccc(F)cc3)CCN(C)CC2)c2nn(CC(F)F)cc2c1 (racemic) [Example 61, (±)-2-(2,2-Difluoroethyl)-7-(1-((4-(4-fluorophenyl)-1-methylpiperidin-4-yl)methoxy)ethyl)-5-methyl-2H-indazole] | 0.01 to 100 | 0.01 to 100 |
| Cc1cc(C(C)OCC2(c3ccc(F)cc3)CCN(C)CC2)c2c(cnn2CC2CC2)c1 (racemic) [Example 62, (±)-1-(Cyclopropylmethyl)-7-(1-((4-(4-fluorophenyl)-1-methylpiperidin-4-yl)methoxy)ethyl)-5-methyl-1H-indazole] | 0.01 to 100 | 0.01 to 100 |
| Cc1cc(C(C)OCC2(c3ccc(F)cc3)CCN(C)CC2)c2nn(CC3CC3)cc2c1 (racemic) [Example 63, (±)-2-(Cyclopropylmethyl)-7-(1-((4-(4-fluorophenyl)-1-methylpiperidin-4-yl)methoxy)ethyl)-5-methyl-2H-indazole] | 0.01 to 100 | 0.01 to 100 |
| Cc1cc(C(C)OCC2(c3ccc(F)cc3)CCN(C)CC2)c2c(cnn2C2CC2)c1 (racemic) [Example 64, (±)-1-Cyclopropyl-7-(1-((4-(4-fluorophenyl)-1-methylpiperidin-4-yl)methoxy)ethyl)-5-methyl-1H-indazole] | 0.01 to 100 | 0.01 to 100 |
| CC(OCC1(c2ccccc2)CCN(C)CC1)c1cc(C(F)(F)F)cc2cc[nH]c12 (racemic) [Example 70, (±)-7-(1-((1-Methyl-4-phenylpiperidin-4-yl)methoxy)ethyl)-5-(trifluoromethyl)-1H-indole] | 0.01 to 100 | 100 to 300 |
| CC(OCC1(c2ccccc2)CCN(C)CC1)c1cc(C(F)(F)F)cc2ccn(C)c12 (racemic) [Example 71, (±)-1-Methyl-7-(1-((1-methyl-4-phenylpiperidin-4-yl)methoxy)ethyl)-5-(trifluoromethyl)-1H-indole] | 0.01 to 100 | 0.01 to 100 |
| CC(OCC1(c2ccc(F)cc2)CCN(C)CC1)c1cc(C(F)(F)F)cc2cc[nH]c12 (racemic) [Example 72, (±)-7-(1-((4-(4-Fluorophenyl)-1-methylpiperidin-4-yl)methoxy)ethyl)-5-(trifluoromethyl)-1H-indole] | 0.01 to 100 | 0.01 to 100 |
| CC(OCC1(c2ccc(F)cc2)CCN(C)CC1)c1cc(C(F)(F)F)cc2ccn(C)c12 (racemic) [Example 73, (±)-7-(1-((4-(4-Fluorophenyl)-1-methylpiperidin-4-yl)methoxy)ethyl)-1-methyl-5-(trifluoromethyl)-1H-indole] | 0.01 to 100 | 0.01 to 100 |
| CC(OCC1(c2ccc(F)cc2)CCN(C)CC1)c1cc(C(F)(F)F)cc2c1NC(=O)C2 (racemic) [Example 123, (±)-7-(1-((4-(4-fluorophenyl)-1-methylpiperidin-4-yl)methoxy)ethyl)-5-(trifluoromethyl)indolin-2-one] | 0.01 to 100 | 0.01 to 100 |
| CC(OCC1(c2ccc(F)cc2)CCN(C)CC1)c1cc(Cl)cc2c(C#N)c[nH]c12 (racemic) [Example 124, (±)-5-chloro-7-(1-((4-(4-fluorophenyl)-1-methylpiperidin-4-yl)methoxy)ethyl)-1H-indole-3-carbonitrile] | 0.01 to 100 | 0.01 to 100 |
| Cc1c[nH]c2c(C(C)OCC3(c4ccc(F)cc4)CCN(C)CC3)cc(C(F)(F)F)cc12 (racemic) [Example 126, (±)-7-(1-((4-(4-fluorophenyl)-1-methylpiperidin-4-yl)methoxy)ethyl)-3-methyl-5-(trifluoromethyl)-1H-indole] | 0.01 to 100 | 0.01 to 100 |
| CC(OCC1(c2ccc(F)cc2)CCN(C)CC1)c1cc(C(F)(F)F)cc2c1ccn2C (racemic) [Example 127, (±)-4-(1-((4-(4-fluorophenyl)-1-methylpiperidin-4-yl)methoxy)ethyl)-1-methyl-6-(trifluoromethyl)-1H-indole] | 0.01 to 100 | 0.01 to 100 |
